According to the NIST ThermoML archive (doi:10.1021/acs.jced.5b00021):
Numbers after ± are expanded uncertainties.

Assay: molar heat capacity at constant pressure
Conditions: 101.33 kPa, Crystal, Small sample (50 mg) DSC

For `NC(N)=C([N+](=O)[O-])[N+](=O)[O-]` [1,1-diamino-2,2-dinitroethene], the “molar heat capacity at constant pressure” value (283 K) was 169.55 ± 3.4 J/K/mol, the “molar heat capacity at constant pressure” value (293 K) was 174.14 ± 3.6 J/K/mol and the “molar heat capacity at constant pressure” value (298 K) was 176.51 ± 3.6 J/K/mol. The “molar heat capacity at constant pressure” value (303 K) was 178.73 ± 3.6 J/K/mol, the “molar heat capacity at constant pressure” value (313 K) was 183.32 ± 3.7 J/K/mol and the “molar heat capacity at constant pressure” value (323 K) was 187.91 ± 3.7 J/K/mol. For the same compound, the “molar heat capacity at constant pressure” value (333 K) was 192.5 ± 3.9 J/K/mol, the “molar heat capacity at constant pressure” value (343 K) was 197.09 ± 4 J/K/mol and the “molar heat capacity at constant pressure” value (353 K) was 201.68 ± 4 J/K/mol.

For `O=[N+]([O-])C(=C1NCCCCN1)[N+](=O)[O-]` [2-(dinitromethylene)-1,3-diazacycloheptane], the “molar heat capacity at constant pressure” value (283 K) was 204.6 ± 4 J/K/mol, the “molar heat capacity at constant pressure” value (293 K) was 211.67 ± 4.2 J/K/mol and the “molar heat capacity at constant pressure” value (298 K) was 215.31 ± 4.2 J/K/mol. The “molar heat capacity at constant pressure” value (303 K) was 218.75 ± 4.4 J/K/mol, the “molar heat capacity at constant pressure” value (313 K) was 226.03 ± 4.4 J/K/mol and the “molar heat capacity at constant pressure” value (323 K) was 233.1 ± 4.6 J/K/mol. The “molar heat capacity at constant pressure” value (333 K) was 240.18 ± 4.9 J/K/mol, the “molar heat capacity at constant pressure” value (343 K) was 247.25 ± 4.9 J/K/mol and the “molar heat capacity at constant pressure” value (353 K) was 254.33 ± 5.1 J/K/mol.

In the case of `O=[N+]([O-])C(=C1NCCCN1)[N+](=O)[O-]` [2-(dinitromethylene)-1,3-diazacyclohexane], the “molar heat capacity at constant pressure” value (283 K) is reported as 200.18 ± 4 J/K/mol, the “molar heat capacity at constant pressure” value (293 K) is reported as 205.26 ± 4.1 J/K/mol and the “molar heat capacity at constant pressure” value (298 K) is reported as 207.71 ± 4.1 J/K/mol. The “molar heat capacity at constant pressure” value (303 K) was 210.16 ± 4.1 J/K/mol, the “molar heat capacity at constant pressure” value (313 K) was 215.05 ± 4.3 J/K/mol and the “molar heat capacity at constant pressure” value (323 K) was 220.13 ± 4.3 J/K/mol. For the same compound, the “molar heat capacity at constant pressure” value (333 K) was 225.02 ± 4.5 J/K/mol, the “molar heat capacity at constant pressure” value (343 K) was 230.1 ± 4.5 J/K/mol and the “molar heat capacity at constant pressure” value (353 K) was 234.99 ± 4.7 J/K/mol.

With `O=[N+]([O-])C(=C1NCCN1)[N+](=O)[O-]` [2-(dinitromethylene)-1,3-diazacyclopentane] the “molar heat capacity at constant pressure” value (283 K) was 197.45 ± 4 J/K/mol, the “molar heat capacity at constant pressure” value (293 K) was 202.67 ± 4 J/K/mol and the “molar heat capacity at constant pressure” value (298 K) was 205.28 ± 4.2 J/K/mol. For the same compound, the “molar heat capacity at constant pressure” value (303 K) was 207.89 ± 4.2 J/K/mol, the “molar heat capacity at constant pressure” value (313 K) was 213.29 ± 4.4 J/K/mol and the “molar heat capacity at constant pressure” value (323 K) was 218.52 ± 4.4 J/K/mol. The “molar heat capacity at constant pressure” value (333 K) was 223.74 ± 4.5 J/K/mol, the “molar heat capacity at constant pressure” value (343 K) was 229.14 ± 4.5 J/K/mol and the “molar heat capacity at constant pressure” value (353 K) was 234.36 ± 4.7 J/K/mol.

For `CC1CNC(=C([N+](=O)[O-])[N+](=O)[O-])N1` (stereo not given) [2-(dinitromethylene)-4-methylimidazolidine], the “molar heat capacity at constant pressure” value (283 K) was 209.78 ± 4.1 J/K/mol, the “molar heat capacity at constant pressure” value (293 K) was 215.8 ± 4.3 J/K/mol and the “molar heat capacity at constant pressure” value (298 K) was 218.81 ± 4.3 J/K/mol. The “molar heat capacity at constant pressure” value (303 K) was 221.82 ± 4.5 J/K/mol, the “molar heat capacity at constant pressure” value (313 K) was 227.84 ± 4.5 J/K/mol and the “molar heat capacity at constant pressure” value (323 K) was 233.86 ± 4.7 J/K/mol. The “molar heat capacity at constant pressure” value (333 K) was 239.88 ± 4.9 J/K/mol, the “molar heat capacity at constant pressure” value (343 K) was 245.9 ± 4.9 J/K/mol and the “molar heat capacity at constant pressure” value (353 K) was 251.92 ± 5.1 J/K/mol.
